According to article PMC8592419 (PLoS ONE, 2021):
Converted amounts (≈) assume the structure as drawn. Where a SMILES comes first, the peptide text is derived from it.

Key:
[1] = test system: Mab ATCC19977 strain; format: cell-based, Mycobacterium abscessus
Experimental: Briefly, serial dilutions of the AMPs were prepared with potassium phosphate buffer (PPB) from the concentration range of 3.125 to 400 μg/ml and then 50 μl of each dilution were added to each 96-well plate. Colonies of the isolate were suspended and then further diluted in Mueller-Hinton broth to obtain a final concentration of 1×10^3 CFU/ml (optimized according to the available AMP stock concentration). Fifty microliters of this inoculum were added to each well of the plates. The plates were incubated for 3 days at 37°C. Plain media and bacterial suspensions without AMPs were used as negative and positive controls. The MIC values were read and recorded. All assays were performed in duplicate and two independent experiments.

[2] = not given; remark: listed apart in the source
[3] = test system: M. abscessus clinical isolate MAB01; assay: In vitro susceptibility testing (DST), CLSI broth microdilution; format: cell-based, M. abscessus subsp. abscessus; parameters: key to DST profile, interpretation, Day 3 / DST profile, interpretation, Day 5 / DST profile, interpretation, Day 14: S, susceptible; I, intermediate; R, resistant
Experimental: (§1) Drug susceptibility testing (DST) was performed according to the Clinical and Laboratory Standards Institute (CLSI) guidelines M24-A2 [42] using the broth microdilution method to determine the minimum inhibitory concentration (MIC). […] Colonies were grown at an adjusted cell density to a 0.5 McFarland standard and further diluted to 5×10^5 CFU/ml. […] These were then incubated at 37°C for 3, 5 and 14 days. The MIC was defined as the concentration in which no visible growth was observed. The results were interpreted according to the guidelines of CLSI. Inducible resistance was inferred by changes in MIC values from being susceptible at day 3 to resistant at day 14.

[4] = test system: M. abscessus clinical isolate MAB02; assay: as above; format: cell-based, M. abscessus subsp. abscessus; parameters: key to DST profile, interpretation, Day 3 / DST profile, interpretation, Day 5 / DST profile, interpretation, Day 14: S, susceptible; I, intermediate; R, resistant
Experimental: as §1

[5] = test system: M. abscessus clinical isolate MAB03; assay: as above; format: cell-based, M. abscessus subsp. abscessus; parameters: key to DST profile, interpretation, Day 3 / DST profile, interpretation, Day 5 / DST profile, interpretation, Day 14: S, susceptible; I, intermediate; R, resistant
Experimental: as §1

[6] = test system: M. abscessus clinical isolate MAB04; assay: as above; format: cell-based, M. abscessus subsp. abscessus; parameters: key to DST profile, interpretation, Day 3 / DST profile, interpretation, Day 5 / DST profile, interpretation, Day 14: S, susceptible; I, intermediate; R, resistant
Experimental: as §1

[7] = test system: M. abscessus clinical isolate MAB05; assay: as above; format: cell-based, M. abscessus subsp. abscessus; parameters: key to DST profile, interpretation, Day 3 / DST profile, interpretation, Day 5 / DST profile, interpretation, Day 14: S, susceptible; I, intermediate; R, resistant
Experimental: as §1

[8] = test system: M. abscessus clinical isolate MAB06; assay: as above; format: cell-based, M. abscessus subsp. abscessus; parameters: key to DST profile, interpretation, Day 3 / DST profile, interpretation, Day 5 / DST profile, interpretation, Day 14: S, susceptible; I, intermediate; R, resistant
Experimental: as §1

[9] = test system: M. abscessus clinical isolate MAB07; assay: as above; format: cell-based, M. abscessus subsp. abscessus; parameters: key to DST profile, interpretation, Day 3 / DST profile, interpretation, Day 5 / DST profile, interpretation, Day 14: S, susceptible; I, intermediate; R, resistant
Experimental: as §1

[10] = test system: M. abscessus clinical isolate MAB08; assay: as above; format: cell-based, M. abscessus subsp. abscessus; parameters: key to DST profile, interpretation, Day 3 / DST profile, interpretation, Day 5 / DST profile, interpretation, Day 14: S, susceptible; I, intermediate; R, resistant
Experimental: as §1

[11] = test system: M. abscessus clinical isolate MAB09; assay: as above; format: cell-based, M. abscessus subsp. abscessus; parameters: key to DST profile, interpretation, Day 3 / DST profile, interpretation, Day 5 / DST profile, interpretation, Day 14: S, susceptible; I, intermediate; R, resistant
Experimental: as §1

[12] = test system: M. abscessus clinical isolate MAB10; assay: as above; format: cell-based, M. abscessus subsp. abscessus; parameters: key to DST profile, interpretation, Day 3 / DST profile, interpretation, Day 5 / DST profile, interpretation, Day 14: S, susceptible; I, intermediate; R, resistant
Experimental: as §1

[13] = test system: M. abscessus clinical isolate MAB11; assay: as above; format: cell-based, M. abscessus subsp. abscessus; parameters: key to DST profile, interpretation, Day 3 / DST profile, interpretation, Day 5 / DST profile, interpretation, Day 14: S, susceptible; I, intermediate; R, resistant
Experimental: as §1

[14] = test system: M. abscessus clinical isolate MAB12; assay: as above; format: cell-based, M. abscessus subsp. massiliense; parameters: key to DST profile, interpretation, Day 3 / DST profile, interpretation, Day 5 / DST profile, interpretation, Day 14: S, susceptible; I, intermediate; R, resistant
Experimental: as §1

[15] = test system: M. abscessus clinical isolate MAB13; assay: as above; format: cell-based, M. abscessus subsp. massiliense; parameters: key to DST profile, interpretation, Day 3 / DST profile, interpretation, Day 5 / DST profile, interpretation, Day 14: S, susceptible; I, intermediate; R, resistant
Experimental: as §1

[16] = test system: M. abscessus clinical isolate MAB14; assay: as above; format: cell-based, M. abscessus subsp. massiliense; parameters: key to DST profile, interpretation, Day 3 / DST profile, interpretation, Day 5 / DST profile, interpretation, Day 14: S, susceptible; I, intermediate; R, resistant
Experimental: as §1

[17] = test system: M. abscessus clinical isolate MAB15; assay: as above; format: cell-based, M. abscessus subsp. massiliense; parameters: key to DST profile, interpretation, Day 3 / DST profile, interpretation, Day 5 / DST profile, interpretation, Day 14: S, susceptible; I, intermediate; R, resistant
Experimental: as §1

[18] = test system: M. abscessus clinical isolate MAB16; assay: as above; format: cell-based, M. abscessus subsp. massiliense; parameters: key to DST profile, interpretation, Day 3 / DST profile, interpretation, Day 5 / DST profile, interpretation, Day 14: S, susceptible; I, intermediate; R, resistant
Experimental: as §1

[19] = Mycobacteroides abscessus, 120 h, day 5, read-out: DST profile, MIC value, Day 5

In the case of `CC(C)[C@H](NC(=O)[C@@H](NC(=O)[C@H](CO)NC(=O)CNC(=O)[C@@H](NC(=O)[C@H](C)NC(=O)CN)C(C)C)C(C)C)C(=O)O` [Pug-2] (H-GAVGSVV-OH), the MIC values [1] is reported as >400 µg/mL.

With `CC[C@H](C)[C@H](NC(=O)[C@H](CCCCN)NC(=O)[C@H](CCCNC(=N)N)NC(=O)CNC(=O)[C@H](CC(C)C)NC(=O)[C@H](CO)NC(=O)[C@H](CCCNC(=N)N)NC(=O)[C@H](CC(C)C)NC(=O)CNC(=O)CN)C(=O)N[C@@H](CC(C)C)C(=O)N[C@@H](CCCNC(=N)N)C(=O)N[C@@H](C)C(=O)N[C@@H](Cc1c[nH]c2ccccc12)C(=O)N[C@@H](CCCCN)C(=O)N[C@@H](CCCCN)C(=O)O` [S62] (H-GGLRSLGRKILRAWKK-OH) the MIC values [1] was 200 µg/mL (≈ 109 µM), the MIC after 3 days, MAB01 and MAB03 was < 50 µg/mL and the MIC within 24 h, majority of isolates (10/16) [2] was < 50 µg/mL.

With `CC(C)C[C@H](NC(=O)[C@H](Cc1ccccc1)NC(=O)[C@H](CO)NC(=O)[C@@H]1CCCN1C(=O)[C@@H](N)Cc1ccccc1)C(=O)N[C@H](C(=O)NCC(=O)N[C@@H](CCCNC(=N)N)C(=O)O)C(C)C` [Pug-4] (H-FPSFLVGR-OH) the MIC values [1] was >400 µg/mL.

In the case of `CC(C)C[C@H](NC(=O)[C@H](CCCCN)NC(=O)[C@H](CC(C)C)NC(=O)[C@@H](N)CC(C)C)C(=O)N[C@@H](Cc1ccccc1)C(=O)N[C@@H](Cc1ccccc1)C(=O)N1CCC[C@H]1C(=O)N[C@@H](Cc1ccccc1)C(=O)N[C@@H](CC(C)C)C(=O)N[C@@H](CCC(=O)O)C(=O)N[C@H](C(=O)NCC(=O)N[C@@H](CCC(=O)O)C(=O)O)[C@@H](C)O` [Pug-1] (H-LLKLFFPFLETGE-OH), the MIC values [1] is reported as >400 µg/mL.

For `CC(C)C[C@H](N)C(=O)NCC(=O)N[C@H](C(=O)N[C@@H](Cc1ccc(O)cc1)C(=O)O)[C@@H](C)O` [Pug-3] (H-LGTY-OH), the MIC values [1] was >400 µg/mL.

With `NCC[C@H](O)C(=O)N[C@@H]1C[C@H](N)[C@@H](O[C@H]2O[C@H](CN)[C@@H](O)[C@H](O)[C@H]2O)[C@H](O)[C@H]1O[C@H]1O[C@H](CO)[C@@H](O)[C@H](N)[C@H]1O` [AMK, Amikacin] the MIC [3, 19] was 64 µg/mL (≈ 109 µM), the “DST profile, interpretation, Day 5” value ([3]; day 5, CLSI interpretation) was “R” and the MIC [4, 19] was 8 µg/mL (≈ 13.7 µM). For the same molecule, the “DST profile, interpretation, Day 5” value ([4]; day 5, CLSI interpretation) was “S”, the MIC [5, 19] was 4 µg/mL (≈ 6.83 µM) and the “DST profile, interpretation, Day 5” value ([5]; day 5, CLSI interpretation) was “S”. For the same molecule, the MIC [6, 19] was 8 µg/mL (≈ 13.7 µM), the “DST profile, interpretation, Day 5” value ([6]; day 5, CLSI interpretation) was “S” and the MIC [7, 19] was 32 µg/mL (≈ 54.6 µM). The “DST profile, interpretation, Day 5” value ([7]; day 5, CLSI interpretation) was “I”, the MIC [8, 19] was 8 µg/mL (≈ 13.7 µM) and the “DST profile, interpretation, Day 5” value ([8]; day 5, CLSI interpretation) was “S”. For the same molecule, the MIC [9, 19] was 8 µg/mL (≈ 13.7 µM), the “DST profile, interpretation, Day 5” value ([9]; day 5, CLSI interpretation) was “S” and the MIC [10, 19] was 8 µg/mL (≈ 13.7 µM). The “DST profile, interpretation, Day 5” value ([10]; day 5, CLSI interpretation) was “S”, the MIC [11, 19] was 8 µg/mL (≈ 13.7 µM) and the “DST profile, interpretation, Day 5” value ([11]; day 5, CLSI interpretation) was “S”. For the same molecule, the MIC [12, 19] was 64 µg/mL (≈ 109 µM), the “DST profile, interpretation, Day 5” value ([12]; day 5, CLSI interpretation) was “R” and the MIC [13, 19] was 16 µg/mL (≈ 27.3 µM). The “DST profile, interpretation, Day 5” value ([13]; day 5, CLSI interpretation) was “S”, the MIC [14, 19] was 8 µg/mL (≈ 13.7 µM) and the “DST profile, interpretation, Day 5” value ([14]; day 5, CLSI interpretation) was “S”. For the same molecule, the MIC [15, 19] was 8 µg/mL (≈ 13.7 µM), the “DST profile, interpretation, Day 5” value ([15]; day 5, CLSI interpretation) was “S” and the MIC [16, 19] was 64 µg/mL (≈ 109 µM). For the same molecule, the “DST profile, interpretation, Day 5” value ([16]; day 5, CLSI interpretation) was “R”, the MIC [17, 19] was 8 µg/mL (≈ 13.7 µM) and the “DST profile, interpretation, Day 5” value ([17]; day 5, CLSI interpretation) was “S”. For the same molecule, the MIC [18, 19] was 32 µg/mL (≈ 54.6 µM) and the “DST profile, interpretation, Day 5” value ([18]; day 5, CLSI interpretation) was “I”.
